According to PubChem BioAssay AID328 (DTP/NCI, 2004):
Where “and” joins values, the source holds several entries; their conditions need not be identical. Equal values may be shown once. Inconclusive results and toxic doses are left out.

Test system: BDF1 mice, P388 leukemia ip, median survival T/C
Test: NCI In Vivo Anticancer Drug Screen. Data for tumor model P388 Leukemia (intraperitoneal) in B6D2F1 (BDF1) mice
Settings: endpoint: median survival time, higher = longer survival
How it was run: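 T/C = treated-group survival ÷ vehicle-control survival; tumour transplanted into mice before dosing.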

[1] = dose: 12.5 mg/kg/injection, schedule: Q01DX009 (ip), vehicle: saline with Tween-80
[2] = dose: 20.0 mg/kg/injection, schedule: Q04DX003 (ip), vehicle: saline with Tween-80
[3] = dose: 25.0 mg/kg/injection, schedule: Q01DX009 (ip), vehicle: saline with Tween-80
[4] = dose: 30.0 mg/kg/injection, schedule: Q04DX003 (ip), vehicle: saline with Tween-80
[5] = dose: 50.0 mg/kg/injection, schedule: Q04DX003 (ip), vehicle: saline with Tween-80
[6] = dose: 100.0 mg/kg/injection, schedule: Q04DX003 (ip), vehicle: saline with Tween-80
[7] = dose: 200.0 mg/kg/injection, schedule: Q04DX003 (ip), vehicle: saline with Tween-80
[8] = dose: 100.0 mg/kg/injection, schedule: Q01DX009 (ip), vehicle: Klucel (hydroxypropylcellulose) (HPC)
[9] = dose: 100.0 mg/kg/injection, schedule: Q04DX003 (ip), vehicle: Klucel (hydroxypropylcellulose) (HPC)
[10] = dose: 200.0 mg/kg/injection, schedule: Q01DX009 (ip), vehicle: Klucel (hydroxypropylcellulose) (HPC)
[11] = dose: 200.0 mg/kg/injection, schedule: Q04DX003 (ip), vehicle: Klucel (hydroxypropylcellulose) (HPC)
[12] = dose: 400.0 mg/kg/injection, schedule: Q01DX009 (ip), vehicle: Klucel (hydroxypropylcellulose) (HPC)
[13] = dose: 400.0 mg/kg/injection, schedule: Q04DX003 (ip), vehicle: Klucel (hydroxypropylcellulose) (HPC)
[14] = dose: 50.0 mg/kg/injection, schedule: Q01DX009 (ip), vehicle: saline with Tween-80
[15] = dose: 100.0 mg/kg/injection, schedule: Q01DX009 (ip), vehicle: saline with Tween-80
[16] = dose: 200.0 mg/kg/injection, schedule: Q01DX009 (ip), vehicle: saline with Tween-80

## Cc1ccc2c(Nc3ccc(NS(C)(=O)=O)cc3)c3ccccc3nc2c1C
dose: 1.78 mg/kg/injection, schedule: Q01DX009 (ip), vehicle: saline with Tween-80
  T/C: 156 % of control
dose: 4.0 mg/kg/injection, schedule: Q01DX009 (ip), vehicle: saline with Tween-80
  T/C: 167 % of control
dose: 5.56 mg/kg/injection, schedule: Q01DX009 (ip), vehicle: saline with Tween-80
  T/C: 196 % of control
dose: 6.0 mg/kg/injection, schedule: Q01DX009 (ip), vehicle: saline with Tween-80
  T/C: 187 % of control
dose: 6.25 mg/kg/injection, schedule: Q01DX009 (ip), vehicle: saline with Tween-80
  T/C: 185 % of control
dose: 8.33 mg/kg/injection, schedule: Q01DX009 (ip), vehicle: saline with Tween-80
  T/C: 186 % of control
dose: 8.8 mg/kg/injection, schedule: Q04DX003 (ip), vehicle: saline with Tween-80
  T/C: 118 % of control
[1]
  T/C: 233 % of control and 247 % of control
dose: 13.2 mg/kg/injection, schedule: Q04DX003 (ip), vehicle: saline with Tween-80
  T/C: 154 % of control
dose: 18.7 mg/kg/injection, schedule: Q01DX009 (ip), vehicle: saline with Tween-80
  T/C: 288 % of control
dose: 20.0 mg/kg/injection, schedule: Q01DX009 (ip), vehicle: other
  T/C: 219 % of control
[2]
  T/C: 168 % of control
dose: 22.0 mg/kg/injection, schedule: Q04DX003 (ip), vehicle: saline with Tween-80
  T/C: 186 % of control
[3]
  T/C: 114 % of control
[4]
  T/C: 177 % of control
dose: 33.0 mg/kg/injection, schedule: Q04DX003 (ip), vehicle: saline with Tween-80
  T/C: 227 % of control
[5]
  T/C: 231 % of control
dose: 75.0 mg/kg/injection, schedule: Q04DX003 (ip), vehicle: saline with Tween-80
  T/C: 218 % of control
[6]
  T/C: 259 % of control
[7]
  T/C: 272 % of control

## c1ccc(/C(=N\Nc2nc3ccccc3s2)c2ccncc2)cc1
[8]
  T/C: 104 % of control
[9]
  T/C: 100 % of control
[10]
  T/C: 95 % of control
[11]
  T/C: 105 % of control
[12]
  T/C: 100 % of control
[13]
  T/C: 105 % of control

## OC1CSC1
dose: 50.0 mg/kg/injection, schedule: Q01DX009 (ip), vehicle: saline + alcohol
  T/C: 105 % of control
dose: 100.0 mg/kg/injection, schedule: Q01DX009 (ip), vehicle: saline + alcohol
  T/C: 100 % of control
dose: 200.0 mg/kg/injection, schedule: Q01DX009 (ip), vehicle: saline + alcohol
  T/C: 91 % of control
dose: 400.0 mg/kg/injection, schedule: Q01DX009 (ip), vehicle: saline + alcohol
  T/C: 98 % of control

## CCCCNC1=C(N2CC2)C(=O)C(NCCCC)=C(N2CC2)C1=O
dose: 1.25 mg/kg/injection, schedule: Q01DX009 (ip), vehicle: saline
  T/C: 107 % of control
dose: 5.0 mg/kg/injection, schedule: Q01DX009 (ip), vehicle: saline
  T/C: 87 % of control

## CC(C)/[N+]([O-])=C/C=C/c1ccccc1
[9]
  T/C: 100 % of control
[11]
  T/C: 100 % of control
[13]
  T/C: 113 % of control

## [NH-]C(CO)C(=O)O.[NH-]C(CO)C(=O)O.[Pd+2] (stereo not drawn)
dose: 12.5 mg/kg/injection, schedule: Q01DX009 (ip), vehicle: water
  T/C: 106 % of control

## Cc1ccc(CO)cc1C
[5]
  T/C: 100 % of control
[6]
  T/C: 100 % of control
[7]
  T/C: 104 % of control

## NC(=O)NN=C1CCCCC1
dose: 17.5 mg/kg/injection, schedule: Q01DX009 (ip), vehicle: Klucel (hydroxypropylcellulose) (HPC)
  T/C: 90 % of control
dose: 26.25 mg/kg/injection, schedule: Q04DX003 (ip), vehicle: Klucel (hydroxypropylcellulose) (HPC)
  T/C: 100 % of control
dose: 35.0 mg/kg/injection, schedule: Q01DX009 (ip), vehicle: Klucel (hydroxypropylcellulose) (HPC)
  T/C: 122 % of control
dose: 52.5 mg/kg/injection, schedule: Q04DX003 (ip), vehicle: Klucel (hydroxypropylcellulose) (HPC)
  T/C: 100 % of control

## CC(=O)Oc1ccc(OC(C)=O)c2c1C(=O)C=CC2=O
dose: 0.09 mg/kg/injection, schedule: Q01DX009 (ip), vehicle: Klucel (hydroxypropylcellulose) (HPC)
  T/C: 97 % of control
dose: 0.18 mg/kg/injection, schedule: Q01DX009 (ip), vehicle: Klucel (hydroxypropylcellulose) (HPC)
  T/C: 97 % of control
dose: 0.37 mg/kg/injection, schedule: Q01DX009 (ip), vehicle: Klucel (hydroxypropylcellulose) (HPC)
  T/C: 112 % of control
dose: 0.75 mg/kg/injection, schedule: Q01DX009 (ip), vehicle: Klucel (hydroxypropylcellulose) (HPC)
  T/C: 118 % of control
dose: 1.5 mg/kg/injection, schedule: Q01DX009 (ip), vehicle: Klucel (hydroxypropylcellulose) (HPC)
  T/C: 93 % of control and 98 % of control
dose: 3.0 mg/kg/injection, schedule: Q01DX009 (ip), vehicle: Klucel (hydroxypropylcellulose) (HPC)
  T/C: 95 % of control
dose: 6.25 mg/kg/injection, schedule: Q01DX009 (ip), vehicle: Klucel (hydroxypropylcellulose) (HPC)
  T/C: 91 % of control

## CN(C)c1ccc(/C=C/c2nc3ccccc3o2)cc1
[9]
  T/C: 90 % of control
[11]
  T/C: 90 % of control
[13]
  T/C: 100 % of control

## CCOC(=O)CCC(NC(=O)Cc1ccc(NC(=O)C(F)(F)F)cc1)C(=O)OCC (stereo not drawn)
[8]
  T/C: 100 % of control
[10]
  T/C: 95 % of control
[12]
  T/C: 104 % of control

## CC1(C)O[C@]2(C)CC[C@@H]1[C@H]1O[C@@H]12
dose: 50.0 mg/kg/injection, schedule: Q01DX005 (ip), vehicle: saline
  T/C: 102 % of control
dose: 100.0 mg/kg/injection, schedule: Q01DX005 (ip), vehicle: saline
  T/C: 100 % of control
dose: 200.0 mg/kg/injection, schedule: Q01DX005 (ip), vehicle: saline
  T/C: 102 % of control

## Cc1ccc(Cc2c(C=O)nc(N)[nH]c2=O)c2ccccc12
[1]
  T/C: 112 % of control
[3]
  T/C: 96 % of control
[14]
  T/C: 102 % of control
dose: 50.0 mg/kg/injection, schedule: Q01DX009 (ip), vehicle: suspension in saline
  T/C: 97 % of control
dose: 100.0 mg/kg/injection, schedule: Q01DX009 (ip), vehicle: suspension in saline
  T/C: 94 % of control
dose: 200.0 mg/kg/injection, schedule: Q01DX009 (ip), vehicle: suspension in saline
  T/C: 106 % of control

## O=c1cc(O)cc(/C=C/c2ccc(O)cc2)o1
[15]
  T/C: 96 % of control
[16]
  T/C: 107 % of control
dose: 265.0 mg/kg/injection, schedule: Q01DX009 (ip), vehicle: saline with Tween-80
  T/C: 90 % of control
dose: 400.0 mg/kg/injection, schedule: Q01DX009 (ip), vehicle: saline with Tween-80
  T/C: 98 % of control

## COc1ccc(-c2csc(-c3ccccc3)n2)cc1N=Cc1ccc(N(CCCl)CCCl)c(OC)c1
dose: 2.6 mg/kg/injection, schedule: Q04DX003 (ip), vehicle: saline with Tween-80
  T/C: 118 % of control
dose: 4.0 mg/kg/injection, schedule: Q04DX003 (ip), vehicle: saline with Tween-80
  T/C: 122 % of control
dose: 6.0 mg/kg/injection, schedule: Q04DX003 (ip), vehicle: saline with Tween-80
  T/C: 90 % of control
dose: 13.0 mg/kg/injection, schedule: Q04DX003 (ip), vehicle: saline with Tween-80
  T/C: 190 % of control
dose: 17.0 mg/kg/injection, schedule: Q01DX009 (ip), vehicle: saline with Tween-80
  T/C: 240 % of control
[2]
  T/C: 204 % of control
[3]
  T/C: 240 % of control
[4]
  T/C: 271 % of control
dose: 37.0 mg/kg/injection, schedule: Q01DX009 (ip), vehicle: saline with Tween-80
  T/C: 184 % of control
dose: 44.0 mg/kg/injection, schedule: Q04DX003 (ip), vehicle: saline with Tween-80
  T/C: 242 % of control and 300 % of control
dose: 67.0 mg/kg/injection, schedule: Q04DX003 (ip), vehicle: saline with Tween-80
  T/C: 272 % of control and 300 % of control
[15]
  T/C: 87 % of control

## OC(Cc1cccnc1)(c1ccccc1)c1ccc(Cl)cc1 (stereo not drawn)
[14]
  T/C: 105 % of control
[15]
  T/C: 100 % of control
[16]
  T/C: 96 % of control

## Cc1cc(-c2ccc(NC(=O)Nc3cccc(F)c3)c(C)c2)ccc1NC(=O)Nc1cccc(F)c1
dose: 50.0 mg/kg/injection, schedule: Q01DX005 (ip), vehicle: saline with Tween-80
  T/C: 91 % of control
dose: 100.0 mg/kg/injection, schedule: Q01DX005 (ip), vehicle: saline with Tween-80
  T/C: 86 % of control
dose: 200.0 mg/kg/injection, schedule: Q01DX005 (ip), vehicle: saline with Tween-80
  T/C: 86 % of control

## O=C(/C=C/c1ccc(Cl)cc1)NCC(O)CO (stereo not drawn)
dose: 400.0 mg/kg/injection, schedule: Q01DX009 (ip), vehicle: water
  T/C: 91 % of control
